Data reported in PMC8391104, “Molecular mechanism of Mad1 kinetochore targeting by phosphorylated Bub1” (EMBO Reports, 2021).
Where a chain is given by its changes, count along the chain named. Where a SMILES comes first, the peptide text is derived from it. [ ]: non-standard residue; d: D form. pT = C[C@@H](OP(=O)(O)O)[C@H](N)C(=O)O; pS = N[C@@H](COP(=O)(O)O)C(=O)O

Columns and labels:
[1] = parameters: method as in Zhang et al, 2017; details: ref Zhang et al, 2017; cited from earlier work
15N-labelled Mad1^CTD = assay: NMR titration (1H,15N HSQC) of Bub1^CD1 peptides into 15N-labelled Mad1^CTD; format: binding, human; details: 298K, 50 mM HEPES pH 7.0, 100 mM NaCl, 2 mM TCEP, 0.02% NaN3
Method: Isotopically labelled Mad1^CTD was expressed in M9 minimal media (6 g/l Na2HPO4, 3 g/l KH2PO4, 0.5 g/l NaCl) supplemented with 1.7 g/l yeast nitrogen base without NH4Cl and amino acids (Sigma Y1251). 1 g/l ^15NH4Cl and 4 g/l unlabelled glucose were supplemented for ^15N labelling. For the deuteration of nonlabile sidechain protons, cells were adapted for growth in 10, 44 and 78% deuterated media on agar plates before they were grown in large cultures supplemented with 1 g/l ^15NH4Cl and 4 g/l ^2H^13C‐glucose in 99% D2O (Sigma). Prior to NMR experiments, isotopically labelled Mad1^CTD and Bub1^CD1 peptide were dialysed into 25 mM HEPES, pH 7.0, 100 mM NaCl, 1 mM TCEP.
^1H‐detected experiments were performed on 600 and 800 MHz Avance III spectrometers, both equipped with triple resonance TCI CryoProbes (Bruker). ^31P 1D NMR spectra were recorded on a 500 MHz Avance II spectrometer equipped with a broadband BBO cryoprobe (Bruker). All spectra were collected in 50 mM HEPES, pH 7.0, 100 mM NaCl, 2 mM TCEP, 0.02% NaN3 at 298K. […] Secondary chemical shifts were calculated from the differences between observed Cα/Cβ chemical shifts and Cα/Cβ chemical shifts for random coils (Kjaergaard & Poulsen, [2011]). […]

[2] = 1H 1D NMR of free Bub1^CD1 peptides (conformation); format: physicochemical; details: narrow dispersion of amide peaks, not bound to Mad1
Method: ^1H‐detected experiments were performed on 600 and 800 MHz Avance III spectrometers, both equipped with triple resonance TCI CryoProbes (Bruker). ^31P 1D NMR spectra were recorded on a 500 MHz Avance II spectrometer equipped with a broadband BBO cryoprobe (Bruker). All spectra were collected in 50 mM HEPES, pH 7.0, 100 mM NaCl, 2 mM TCEP, 0.02% NaN3 at 298K. Standard ^2H decoupled TROSY‐based triple resonance experiments were used for backbone resonance assignments: HNCO, HN(CA)CO, HNCA, HN(CO)CA, HNCACB, HN(CO)CACB and HN(COCA)NNH (Pervushin, [2020]). Backbone datasets were collected with 20–25% non‐uniform sampling and reconstructed using compressed sensing in MddNMR (Mayzel et al, [2014]). Topspin 3.6 (Bruker) was used for processing and NMRFAM‐Sparky 1.47 for data analysis (Lee et al, [2015]). Backbone assignments were obtained in Mars (Jung & Zweckstetter, [2004]). Secondary chemical shifts were calculated from the differences between observed Cα/Cβ chemical shifts and Cα/Cβ chemical shifts for random coils (Kjaergaard & Poulsen, [2011]). […]

[3] = target: T1, human Mad1^CTD (WT) homodimer (Homo sapiens, UniProt Q9Y6D9); assay: ITC of Bub1^CD1 peptides binding to wild-type Mad1^CTD; details: for binding to Mad1^CTD by ITC, in words: pH 7.5, Mad1^CTD WT
T1 construct: human Mad1^CTD homodimer (residues 597–718); double Strep His6-tag with TEV site (N, cleaved yes); made in house; host or cells: E. coli Rosetta 2 (DE3)
T1 sequence (Q9Y6D9 597-718): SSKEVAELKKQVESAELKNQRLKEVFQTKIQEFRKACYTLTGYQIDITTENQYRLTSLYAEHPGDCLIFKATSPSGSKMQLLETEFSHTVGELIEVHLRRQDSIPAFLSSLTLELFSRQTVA
Description: (§1) The coding region of Mad1^597–719 was cloned by USER® (NEB) into a modified pRSFDuet‐1 vector (71341‐3, Sigma‐Aldrich) with an N‐terminal double Strep His6‐tag, followed by a tobacco etch virus (TEV) protease cleavage site (Demple & Linn, [1982]; Bitinaite et al, [1992]). Mad1 mutants were generated using the QuikChange™ Lightning Site‐Directed Mutagenesis Kit (Agilent), developed by Stratagene Inc. (La Jolla, CA) (Nøhr & Kristiansen, [2003]). Mad1 constructs were transformed into Rosetta™ 2 (DE3) Singles™ Competent Cells (71400, Novagen) for expression. Expression was induced with 0.5 mM IPTG and grown overnight at 18°C. Cells were lysed in 25 mM HEPES pH 8.1, 250 mM NaCl, 2 mM DTT, 5% glycerol, 2 mM EDTA supplemented with lysozyme, and Complete™ EDTA‐free protease inhibitors (Roche). Proteins were purified over a Strep‐Tactin Superflow Plus column (QIAGEN) and cleaved with TEV protease overnight at 4°C. The cleaved Mad1^CTD was then diluted to 50 mM NaCl, purified over an anion exchange (Resource Q, GE Healthcare) column, followed by size exclusion chromatography using a Superdex 75 Increase column (GE Healthcare). Mad1^CTD was concentrated to 35 mg/ml in a buffer of 20 mM HEPES pH 7.5, 100 mM NaCl and 1 mM TCEP.
Bub1^CD1 peptides were ordered from Designer Bioscience UK, at 95% purity. The full peptide sequence used in this study was (W)KVQP{pS}P{pT}VHTKEALGFIMNMFQAPTS. (W) = peptide with an additional N‐terminal tryptophan was used to confirm peptide concentration in stoichiometry studies.
Isothermal titration calorimetry (ITC) was performed using an Auto‐iTC200 instrument (Malvern Instruments, Malvern, UK) at 20°C. Mad1^CTD and Bub1^CD1 peptide mutants were dialysed into 20 mM HEPES pH 7.5, 100 mM NaCl, 1 mM TCEP. For each titration between 30–100 µM of Mad1 was pipetted into the calorimeter cell. The Bub1^CD1 peptides at 0.3–1.5 mM were titrated into the cell consisting of one 0.5 µl injection followed by 19 injections of 2 µl each. The changes in the heat released were integrated over the entire titration and fitted to a single‐site binding model using the MicroCal PEAQ‐ITC Analysis Software 1.0.0.1258 (Malvern Instruments). Titrations were performed in triplicate. Calculations for stoichiometry were based on the molar concentrations of dimeric Mad1^CTD.

[4] = target: T2, Mad1^CTD QRRI** (Q627A, R650A, I643A, R630A) (Homo sapiens, UniProt Q9Y6D9, I643A/Q627A/R630A/R650A); assay: ITC, Mad1^CTD QRRI** quadruple mutant; format: binding; details: 20°C, pH 7.5, QRRI**, average of at least three experiments ± SD
T2 construct: human Mad1^CTD homodimer (residues 597–718); double Strep His6-tag with TEV site (N, cleaved yes); made in house; host or cells: E. coli Rosetta 2 (DE3)
T2 sequence (Q9Y6D9 597-718 Q627A/R630A/I643A/R650A limits assumed): T1 sequence (Q9Y6D9 597-718) with Q31A, R34A, I47A, R54A
Description: as §1
(§2) Isothermal titration calorimetry (ITC) was performed using an Auto‐iTC200 instrument (Malvern Instruments, Malvern, UK) at 20°C. […]

Peptide solubility = format: physicochemical; details: Hepes buffer, aqueous buffer; 20 mM Hepes, pH 7.5, 100 mM NaCl, 1 mM TCEP, without DMSO; read-out: solubility
Method: Our ITC and sedimentation equilibrium experiments to measure the stoichiometry of the Mad1^CTD‐Bub1^CD1 interaction were performed with concentrations of Mad1 at 100 µM or lower, and titrating Bub1 until a twofold‐fourfold molar excess was obtained. However, our ^31P NMR experiments were conducted with around 0.25 to 0.5 mM of each, and still only one binding event was detected. […] DMSO interfered with ITC enthalpy changes and the NMR signal from DMSO obscured the protein peaks. In contrast, our Mad1^CTD‐Bub1^CD1 crystal structure was obtained through co‐crystallization of Mad1^CTD at a final concentration of 0.35 mM and Bub1^CD1 at 2.5 mM in 5% DMSO. The use of millimolar concentrations of peptide, and the presence of DMSO and isopropanol, required for Mad1^CTD‐Bub1^CD1 crystallization, may explain the association of a second peptide in the crystallized complex. […]
which are affected are already mapped out in Fig 5B, and this can be tracked across Bub1CD1 […]
We thank the reviewer for their positive and constructive comments.
1) On page 2, the first line of the third paragraph, Msp1 should be Mps1.
Response: Thank you, we have corrected this error.
2) Please provide a figure to show the omit map (2Fo−Fc map) for the BUB1 CD1 peptide.
Response: We have created a 2Fo-Fc omit map and included it in Fig EV2D and updated the figure legend accordingly. […]
2) p. 5, near bottom. The authors state that the singly phosphorylated Bub1 peptide (on Thr-461) is less soluble than the double phosphorylated peptide (also phosphorylated on Ser-459), which may explain previous reports that P-Ser-459 contributes to binding Mad1-CTD. It would be helpful if the authors could quantify this reduced solubility.
Response: We realise that our comment on the reduced solubility of the singly phosphorylated pT461 peptide is likely confusing, so we have removed this comment.
In terms of quantifying the reduced solubility, we observed an approximately 2-fold reduction of the solubility of the singly phosphorylated peptide. […]

Mad1^CTD R630A = target: T3, Mad1^CTD R630A (Homo sapiens, UniProt Q9Y6D9, R630A); assay: ITC, Mad1^CTD R630A; format: binding; details: 20°C, pH 7.5, R630A, average of at least three experiments ± SD
T3 construct: human Mad1^CTD homodimer (residues 597–718); double Strep His6-tag with TEV site (N, cleaved yes); made in house; host or cells: E. coli Rosetta 2 (DE3)
T3 sequence (Q9Y6D9 597-718 R630A limits assumed): T1 sequence (Q9Y6D9 597-718) with R34A
Description: as §1, §2

Mad1^CTD Q627A = target: T4, Mad1^CTD Q627A (Homo sapiens, UniProt Q9Y6D9, Q627A); assay: ITC, Mad1^CTD Q627A; format: binding; details: 20°C, pH 7.5, Q627A, average of at least three experiments ± SD
T4 construct: human Mad1^CTD homodimer (residues 597–718); double Strep His6-tag with TEV site (N, cleaved yes); made in house; host or cells: E. coli Rosetta 2 (DE3)
T4 sequence (Q9Y6D9 597-718 Q627A limits assumed): T1 sequence (Q9Y6D9 597-718) with Q31A
Description: as §1, §2

Mad1^CTD K614A = target: T5, Mad1^CTD K614A (Homo sapiens, UniProt Q9Y6D9, K614A); assay: ITC, Mad1^CTD K614A; format: binding; details: 20°C, pH 7.5, K614A, average of at least three experiments ± SD
T5 construct: human Mad1^CTD homodimer (residues 597–718); double Strep His6-tag with TEV site (N, cleaved yes); made in house; host or cells: E. coli Rosetta 2 (DE3)
T5 sequence (Q9Y6D9 597-718 K614A limits assumed): T1 sequence (Q9Y6D9 597-718) with K18A
Description: as §1, §2

Mad1^CTD K619A = target: T6, Mad1^CTD K619A (Homo sapiens, UniProt Q9Y6D9, K619A); assay: ITC, Mad1^CTD K619A; format: binding; details: 20°C, pH 7.5, K619A, average of at least three experiments ± SD
T6 construct: human Mad1^CTD homodimer (residues 597–718); double Strep His6-tag with TEV site (N, cleaved yes); made in house; host or cells: E. coli Rosetta 2 (DE3)
T6 sequence (Q9Y6D9 597-718 K619A limits assumed): T1 sequence (Q9Y6D9 597-718) with K23A
Description: as §1, §2

Compound | conformation of unbound peptide by circular dichroism, in words [1] | binding by NMR titration, in words (15N-labelled Mad1^CTD) | conformation of free peptide, in words [2] | binding to Mad1^CTD by ITC, in words ([3]; 20°C) | binding to Mad1^CTD by ITC, in words ([3]; 20°C, listed as unphosphorylated Bub1^CD1 peptide) | Kd [4] [µM] | solubility (Peptide solubility) [µM] | Kd (Mad1^CTD R630A) [µM] | Kd (Mad1^CTD Q627A) [µM] | Kd (Mad1^CTD K614A) [µM] | Kd (Mad1^CTD K619A) [µM] | Kd ([3]; 20°C, 20 mM HEPES pH 7.5, 100 mM NaCl, 1 mM TCEP, 30–100 µM Mad1 in cell, 0.3–1.5 mM peptide, single-site model, average of at least three experiments ± SD) [µM] | KD at lowered peptide concentration ([3]; lowered concentration of doubly phosphorylated peptide (usual: 100 µM Mad1CTD, 1 mM peptide))
CD1: non‐phosphorylated Bub1^CD1 peptide (KVQPSPTVHTKEALGFIMNMFQAPTS; phosphoserine at 459, phosphothreonine at 461) | unstructured but might have helical propensity that is increased with Thr461 phosphorylation | failed to reveal Bub1‐Mad1 interactions | unstructured when not bound to Mad1 | no binding | complete absence of interactions | – | – | – | – | – | – | – | –
CC[C@H](C)[C@H](NC(=O)[C@H](Cc1ccccc1)NC(=O)CNC(=O)[C@H](CC(C)C)NC(=O)[C@H](C)NC(=O)[C@H](CCC(=O)O)NC(=O)[C@H](CCCCN)NC(=O)[C@@H](NC(=O)[C@H](Cc1c[nH]cn1)NC(=O)[C@@H](NC(=O)[C@@H](NC(=O)[C@@H]1CCCN1C(=O)[C@H](COP(=O)(O)O)NC(=O)[C@@H]1CCCN1C(=O)[C@H](CCC(N)=O)NC(=O)[C@@H](NC(=O)[C@@H](N)CCCCN)C(C)C)[C@@H](C)OP(=O)(O)O)C(C)C)[C@@H](C)O)C(=O)N[C@@H](CCSC)C(=O)N[C@@H](CC(N)=O)C(=O)N[C@@H](CCSC)C(=O)N[C@@H](Cc1ccccc1)C(=O)N[C@@H](CCC(N)=O)C(=O)N[C@@H](C)C(=O)N1CCC[C@H]1C(=O)N[C@H](C(=O)N[C@@H](CO)C(=O)O)[C@@H](C)O [pSpT CD1] (H-KVQP[pS]P[pT]VHTKEALGFIMNMFQAPTS-OH) | – | – | – | – | – | 24.9 ± 1.3 | ≥ 1500 | 10.1 ± 1.3 | 2.4 ± 0.4 | 2.4 ± 0.43 | 10.1 ± 5.4 | 2.7 ± 1.2 | same KD
